Experimental data from patent US11571453B2, “Piper laetispicum extract and preparation method therefor and use thereof” (SUZHOU YI-HUA BIOMEDICAL TECHNOLOGY CO., LTD, priority 2017, dated 2023).

How the values were obtained:
Format in all cases: in vivo
Kunming mice [1] = test: Mouse swimming test; conditions: 50 mg/kg/d oral, 14 days, 1 h after last dose; n=10, x ± SD
Description: Kunming mice (male, 18-20 g) were randomly divided into 12 groups, each with 10 rats. Each group was given the corresponding dose of extract as shown in Table 4 and normal saline was used as control. The positive control group was venlafaxine. Continuous administered for 14 days, one time per day. One hour after the last oral administration, the mice were placed into a glass tank of 10×20 cm and water depth of 10 cm (water temperature 25° C.) for a swimming test. The swimming duration was 6 minutes, the time to stop motion within 5 minutes was recorded.

Kunming mice [2] = test: Mouse tail hanging test; conditions: 50 mg/kg/d oral, 14 days, 1 h after last dose; n=10, x ± SD
Description: Kunming mice (male, 18-20 g) were randomly divided into 14 groups, each with 10 rats. […] The positive control group was venlafaxine. Continuous administered for 14 days, one time per day. One hour after the last oral administration, the mouse tail hanging test was carried out. The tails of the mice were glued on a wooden bar 50 cm above the table top to make them stand upside down, and the mouse sight was isolated using plates around. The mice would struggle to overcome the abnormal posture, but appear immobile after a period of activity, showing state of despair Duration was 6 minutes, the time of immobility within 6 minutes was recorded.

Wistar rats = test: Rat learned helplessness test (conditional avoidance)
Description: Wistar rats were selected and randomly grouped into 10 rats in each group. The learned helplessness test model was used in which the corresponding dose of extracts shown as in Table 5 were administered orally by gavage. The positive control was venlafaxine. Continuous administered for 7 days, one time per day. 24 h after the last oral administration, a conditional avoidance test is implemented.

mice = test: Light and dark box test in mice; conditions: 2.0 mg/kg oral, 60 min after dose, 5 min test; n = 10, x ± SD
Description: The positive control drug was diazepam. 60 minutes after oral administration, the light and dark box test was implemented. Each mouse is tested for 5 minutes, and each residence time in the light box and the number of shuttles between the light and dark boxes are recorded.

| Compound | Stop motion within 5 min (Kunming mice [1]) [s] | Immobility time within 6 min (Kunming mice [2]) [s] | Escape latency (Wistar rats; 30 mg/kg/d oral gavage, 7 days, 24 h after last dose, u test n = 10, x ± SD) [s] | escape latency of the rats, effect in words (Wistar rats; doses of 10, 5, 2.5 mg/kg/d, compared with the model control group P<0.01) | Number of shuttles (mice) | Time (residence time in the light box) (mice) |
| --- | --- | --- | --- | --- | --- | --- |
| COc1ccc(C(CN(C)C)C2(O)CCCCC2)cc1 (stereo not drawn) [Venlafaxine, venlafaxine] | 75.8 ± 19.4 | 60.9 ± 38.5 | 14.15 ± 12.32 | significantly shortened the escape latency |  |  |
| CN1C(=O)CN=C(c2ccccc2)c2cc(Cl)ccc21 [Diazepam, diazepam] |  |  |  |  | 14.23 ± 1.06 | 121.23 ± 8.12 |
